System: HIV-1
Assay: HIV infectivity assay (Table 2, strain not given)
Format: cell-based
Conditions: Human immunodeficiency virus 1, read-out: Activity Level
Method: (§1) Compounds were profiled against two HIV-1 viruses, the M-tropic (CCR5 utilizing) Ba-L strain and the T-tropic (CXCR4 utilizing) IIIB strain. Both viruses were propagated in human peripheral blood lymphocytes. Compounds were tested for there ability to block infection of the HOS cell line (expressing hCXCR4/hCCR5/hCD4/pHIV-LTR-luciferase) by either HIV-1 Ba-L or HIV-1, IIIB. Compound cytotoxicity was also examined in the absence of virus addition.
(§2) HOS cells (expressing hCXCR4/hCCR5/hCD4/pHIV-LTR-luciferase) were harvested and diluted in Dulbeccos modified Eagles media supplemented with 2% FCS and non-essential amino acid to a concentration of 60,000 cells/ml. The cells were plated into 96-well plates (100 ul per well) and the plates were placed in a tissue culture incubator (37° C.; 5% CO2/95% air) for a period of 24 h.
Subsequently, 50 ul of the desired drug solution (4 times the final concentration) was added to each well and the plates were returned to the tissue culture incubator (37° C.; 5% CO2/95% air) for 1 h. Following this incubation 50 ul of diluted virus was added to each well (approximately 2 million RLU per well of virus). The plates were returned to the tissue culture incubator (37° C.; 5% CO2/95% air) and were incubated for a further 96 h.
Following this incubation the endpoint for the virally infected cultures was quantified following addition of Steady-Glo Luciferase assay system reagent (Promega, Madison, Wis.). Cell viability or non-infected cultures was measured using a CellTiter-Glo luminescent cell viability assay system (Promega, Madison, Wis.). All luminescent readouts are performed on a Topcount luminescence detector (Packard, Meridien, Conn.).
as §1, with “Ba-L was” for “Both viruses were”, “either peripheral blood lymphocytes or SupT1/CCR5+/CXCR4+ cells. IIIB was propagated in” for “human”, “their” for “there”
as §2, with “FCS” for “FCS and non-essential amino acid”, “120,000” for “60,000”, “(50 μl” for “(100 ul”, “(370°” for “(37°”
Subsequently, 50 μl of the desired drug solution (2 times the final concentration) was added to each well and the plates were returned to the tissue culture incubator (370° C.; 5% CO2/95% air) for 1 h. Following this incubation, 60 μl of diluted virus (4 times the final concentration) was added to 60 μl of 2× the final desired concentration of the compound and 100 μl of this compound/virus mix was added to each well (approximately 2 million RLU per well of virus). The plates were returned to the tissue culture incubator (370° C.; 5% CO2/95% air) and were incubated for a further 96 h.

SMILES	IC50 [nM]
CNCCCN(C)c1cccc2nc(CN3CCC[C@H]4CCc5cccnc5[C@H]43)cn12 [Example 81, N-{2-[(4aR,10bS)-3,4,4a,5,6,10b-hexahydro-1,10-phenanthrolin-1(2H)-ylmethyl]imidazo[1,2-a]pyridin-5-yl}-N,N′-dimethyl-1,3-propanediamine]	< 100
CN(C)CCCn1cnc(CN2CCC[C@H]3CCc4cccnc4[C@H]32)c1 [Example 51a, (3-{4-[(4aR,10bS)-3,4,4a,5,6,10b-hexahydro-1,10-phenanthrolin-1(2H)-ylmethyl]-1H-imidazol-1-yl}propyl)dimethylamine]	500 to 10000
CN(C)C1CN(c2cccc3nc(CN4CCC[C@H]5CCc6cccnc6[C@H]54)cn23)C1 [Example 98, 1-{2-[(4aR,10bS)-3,4,4a,5,6,10b-hexahydro-1,10-phenanthrolin-1(2H)-ylmethyl]imidazo[1,2-a]pyridin-5-yl}-N,N-dimethyl-3-azetidinamine]	100 to 500
c1cnc2c(c1)CC[C@H]1CCN(Cc3nc4ccccc4n3CCCN3CCCCC3)[C@H]21 (racemic) [Example 133, (trans) 1-({1-[3-(1-piperidinyl)propyl]-1H-benzimidazol-2-yl}methyl)-2,3,3a,4,5,9b-hexahydro-1H-pyrrolo[3,2-h]quinoline]	100 to 500
CN1CCN(c2cccc3nc(CN4CCC[C@H]5CCc6cccnc6[C@H]54)c(CN4CCOCC4)n23)CC1 [Example 59, (4aR,10bS)-1-{[5-(4-methyl-1-piperazinyl)-3-(4-morpholinylmethyl)imidazo[1,2-a]pyridin-2-yl]methyl}-1,2,3,4,4a,5,6,10b-octahydro-1,10-phenanthroline]	< 100
c1cnc2c(c1)CC[C@@H]1CCCN(Cc3cn4c(N5CCC(C6CCNCC6)CC5)cccc4n3)[C@H]21 [Example 76a, (4aR,10bS)-1-{[5-(4,4′-bipiperidin-1-yl)imidazo[1,2-a]pyridin-2-yl]methyl}-1,2,3,4,4a,5,6,10b-octahydro-1,10-phenanthroline]	100 to 500
c1cnc2c(c1)CC[C@H]1CCN(Cc3nc4ccccc4n3Cc3nc4ccccc4[nH]3)[C@H]21 (racemic) [Example 131, (trans) 1-{[1-(1H-benzimidazol-2-ylmethyl)-1H-benzimidazol-2-yl]methyl}-2,3,3a,4,5,9b-hexahydro-1H-pyrrolo[3,2-h]quinoline]	500 to 10000
CN(C)CCCn1c(CN2CCC[C@@H]3CCc4cccnc4[C@H]32)nc2ccccc21 (relative stereo) [Example 40, (trans) 3-[2-(3,4,4a,5,6,10b-hexahydro-1,10-phenanthrolin-1(2H)-ylmethyl)-1H-benzimidazol-1-yl]-N,N-dimethyl-1-propanamine]	100 to 500
CCN1CCN(c2cccc3nc(CN4CCC[C@H]5CCc6cccnc6[C@H]54)cn23)CC1 [Example 73, (4aR,10bS)-1-{[5-(4-ethyl-1-piperazinyl)imidazo[1,2-a]pyridin-2-yl]methyl}-1,2,3,4,4a,5,6,10b-octahydro-1,10-phenanthroline]	< 100
NC1CCN(c2cccc3nc(CN4CCC[C@H]5CCc6cccnc6[C@H]54)cn23)CC1 [Example 89, 1-{2-[(4aR,10bS)-3,4,4a,5,6,10b-hexahydro-1,10-phenanthrolin-1(2H)-ylmethyl]imidazo[1,2-a]pyridin-5-yl}-4-piperidinamine]	< 100
c1cnc2c(c1)CC[C@@H]1CCCN(Cc3cn4c(N5CCN6CCC[C@H]6C5)cccc4n3)[C@H]21 [Example 106, (4aR,10bS)-1-({5-[(8aS)-hexahydropyrrolo[1,2-a]pyrazin-2(1H)-yl]imidazo[1,2-a]pyridin-2-yl}methyl)-1,2,3,4,4a,5,6,10b-octahydro-1,10-phenanthroline]	< 100
CN1CCC[C@H](Cn2c(CN3CCC[C@H]4CCc5cccnc5[C@H]43)nc3ccccc32)C1 [Example 66, (4aR,10bS)-1-[(1-{[(3S)-1-methyl-3-piperidinyl]methyl}-1H-benzimidazol-2-yl)methyl]-1,2,3,4,4a,5,6,10b-octahydro-1,10-phenanthroline]	< 100
c1cnc2c(c1)CC[C@@H]1CCCN(Cc3cn4c(N5CCOCC5)cccc4n3)[C@H]21 (racemic) [Example 52, (cis) 1-{[5-(4-morpholinyl)imidazo[1,2-a]pyridin-2-yl]methyl}-1,2,3,4,4a,5,6,10b-octahydro-1,10-phenanthroline]	500 to 10000
CN1CCN(c2cccc3nc(CN4CCC[C@H]5CCc6cccnc6[C@H]54)n(C)c23)CC1 [Example 134, (4aR,10bS)-1-{[1-methyl-7-(4-methyl-1-piperazinyl)-1H-benzimidazol-2-yl]methyl}-1,2,3,4,4a,5,6,10b-octahydro-1,10-phenanthroline]	< 100
c1cnc2c(c1)CC[C@@H]1CCCN(Cc3cn4c(N5CCSCC5)cccc4n3)[C@H]21 [Example 78, (4aR,10bS)-1-{[5-(4-thiomorpholinyl)imidazo[1,2-a]pyridin-2-yl]methyl}-1,2,3,4,4a,5,6,10b-octahydro-1,10-phenanthroline]	100 to 500
c1cnc2c(c1)CC[C@@H]1CCCN(Cc3cn4c(N5CCCNCC5)cccc4n3)[C@H]21 [Example 87, (4aR,10bS)-1-{[5-(hexahydro-1H-1,4-diazepin-1-yl)imidazo[1,2-a]pyridin-2-yl]methyl}-1,2,3,4,4a,5,6,10b-octahydro-1,10-phenanthroline]	< 100
CN1CCN(c2cccc3nc(CN4CCC[C@H]5CCc6cccnc6[C@H]54)c(CN4CCCC4)n23)CC1 [Example 58, (4aR,10bS)-1-{[5-(4-methyl-1-piperazinyl)-3-(1-pyrrolidinylmethyl)imidazo[1,2-a]pyridin-2-yl]methyl}-1,2,3,4,4a,5,6,10b-octahydro-1,10-phenanthroline]	< 100
N[C@H]1CCN(c2cccc3nc(CN4CCC[C@H]5CCc6cccnc6[C@H]54)cn23)C1 [Example 107, (3S)-1-{2-[(4aR,10bS)-3,4,4a,5,6,10b-hexahydro-1,10-phenanthrolin-1(2H)-ylmethyl]imidazo[1,2-a]pyridin-5-yl}-3-pyrrolidinamine]	< 100
CN1CCN(c2cccc3nc(CN4CCC[C@H]5CCc6cccnc6[C@H]54)[nH]c23)CC1 [Example 48, (4aR,10bS)-1-{[4-(4-methyl-1-piperazinyl)-1H-benzimidazol-2-yl]methyl}-1,2,3,4,4a,5,6,10b-octahydro-1,10-phenanthroline]	< 100
CN(C)CCCn1cncc1CN1CCC[C@H]2CCc3cccnc3[C@H]21 [Example 51b, (3-{5-[(4aR,10bS)-3,4,4a,5,6,10b-hexahydro-1,10-phenanthrolin-1(2H)-ylmethyl]-1H-imidazol-1-yl}propyl)dimethylamine]	500 to 10000
CNC1CCN(c2cccc3nc(CN4CCC[C@H]5CCc6cccnc6[C@H]54)cn23)C1 (stereo partly drawn) [Example 95, 1-{2-[(4aR,10bS)-3,4,4a,5,6,10b-hexahydro-1,10-phenanthrolin-1(2H)-ylmethyl]imidazo[1,2-a]pyridin-5-yl}-N-methyl-3-pyrrolidinamine]	< 100
NC1CN(c2cccc3nc(CN4CCC[C@H]5CCc6cccnc6[C@H]54)cn23)C1 [Example 97, 1-{2-[(4aR,10bS)-3,4,4a,5,6,10b-hexahydro-1,10-phenanthrolin-1(2H)-ylmethyl]imidazo[1,2-a]pyridin-5-yl}-3-azetidinamine]	< 100

Source: US20090093454A1, “Chemical Compounds” (priority 2005, published 2009)
